Assays:
mushroom tyrosinase [1] = assay: Tyrosinase inhibition assay (96-well, L-DOPA substrate, dopachrome at 480 nm); format: biochemical; details: for IC50: mean ± SEM, triplicate, substrate L-DOPA
Description: Using a spectrophotometer microplate reader, the 96-well plate tyrosinase inhibition experiment was performed by Masamoto et al.'s protocol.[65,66] […] Then, add 60 μL of phosphate buffer and 10 μL of mushroom tyrosinase (30 U mL^−1 in phosphate buffer) to the reaction mixture incubated for 10 min at 25 °C. Following incubation, 20 μL of substrate L-DOPA (0.5 mM) in phosphate buffer was added. The end product dopachrome formation was measured at 480 nm for continues 10 min with one min interval time using 96-well ELISA plate reader (Bio-Rad xMARK microplate spectrophotometer). All of the experiments were carried out in triplicate to account for potential mistakes, and the mean findings were reported in SEM. All of the in vitro experiment results, including % inhibition and IC50 values, were examined using EZ-Fit, an enzyme kinetics tool that fits curves (Perrella Scientific Inc., Amherst, USA).
The % inhibition was computed using the formula provided below.1 [drawing 39]
EZ-FIT (Perrella Scientific, Inc., USA) was used to calculate each tested compound's IC50 value. All the experiments were performed in triplicate to reduce predicted errors, and differences in the outcomes are expressed as Standard Error of Mean values (SEM).2 [drawing 40]

mushroom tyrosinase [2] = assay: Kinetic analysis of tyrosinase inhibition (Lineweaver-Burk, Dixon plot); format: biochemical; details: substrate L-Dopa 0.1-0.8 mM
Description: Four distinct doses of the substrate L-Dopa 0.1, 0.2, 0.4, and 0.8 mM were used in the kinetic analysis. The in vitro mechanistic study was carried out by following a similar inhibitory procedure with a similar experimental temperature and time period. […]

SMILES	Percent inhibition (0.5 mM) (mushroom tyrosinase [1]) [%]	IC50 (mushroom tyrosinase [1]) [µM]	melting point [°C]	Ki (mushroom tyrosinase [2]) [µM]	type of inhibition (mushroom tyrosinase [2])
S=C(N/N=C/c1cn(Cc2ccccc2)c2ccccc12)Nc1ccc(Br)cc1 [Compound 5j, (E)-2-[(1-benzyl-1H-indol-3-yl)methylene]-N-(4-bromophenyl)hydrazinecarbothioamide]	84.19	26.8 ± 0.29			
S=C(NCc1ccc(Cl)cc1)N/N=C/c1cn(Cc2ccccc2)c2ccccc12 [Compound 5e, (E)-2-[(1-benzyl-1H-indol-3-yl)methylene]-N-(4-chlorobenzyl)hydrazinecarbothioamide]	84.73	33.6 ± 1.1	225 to 227		
S=C(NCCc1ccccc1)N/N=C/c1cn(Cc2ccccc2)c2ccccc12 [Compound 5b, (E)-2-[(1-benzyl-1H-indol-3-yl)methylene]-N-phenethylhydrazinecarbothioamide]	78.35	45.4 ± 0.75	198 to 201		
S=C(NCc1ccccc1)N/N=C/c1cn(Cc2ccccc2)c2ccccc12 [Compound 5i, (E)-N-benzyl-2-[(1-benzyl-1H-indol-3-yl)methylene]hydrazinecarbothioamide]	82.71	36.7 ± 1.48	193 to 195		
Fc1ccc(NC(=S)N/N=C/c2cn(Cc3ccccc3)c3ccccc23)cc1 [Compound 5d, (E)-2-[(1-benzyl-1H-indol-3-yl)methylene]-N-(4-fluorophenyl)hydrazinecarbothioamide]	90.47	16.8 ± 0.38			
O=[N+]([O-])c1cccc(NC(=S)N/N=C/c2cn(Cc3ccccc3)c3ccccc23)c1 [Compound 5o, (E)-2-[(1-benzyl-1H-indol-3-yl)methylene]-N-(3-nitrophenyl)hydrazinecarbothioamide]	91.34	17.1 ± 0.28			
Cc1ccc(NC(=S)N/N=C/c2cn(Cc3ccccc3)c3ccccc23)c(C)c1 [Compound 5h, (E)-2-[(1-benzyl-1H-indol-3-yl)methylene]-N-(2,4-dimethylphenyl)hydrazinecarbo thioamide]	83.76	29.7 ± 0.72	180 to 182		
COc1cccc(NC(=S)N/N=C/c2cn(Cc3ccccc3)c3ccccc23)c1 [Compound 5l, (E)-2-[(1-benzyl-1H-indol-3-yl)methylene]-N-(3-methoxyphenyl)hydrazinecarbothioamide]	84.39	31.6 ± 1.26			
S=C(N/N=C/c1cn(Cc2ccccc2)c2ccccc12)Nc1ccccc1 [Compound 5g, (E)-2-[(1-benzyl-1H-indol-3-yl)methylene]-N-phenylhydrazinecarbothioamide]	81.47	38.3 ± 1.34			
COc1ccc(NC(=S)N/N=C/c2cn(Cc3ccccc3)c3ccccc23)cc1 [Compound 5a, (E)-2-[(1-benzyl-1H-indol-3-yl)methylene]-N-(4-methoxyphenyl)hydrazinecarbothioamide]	87.15	24.2 ± 0.38			
O=[N+]([O-])c1ccc(NC(=S)N/N=C/c2cn(Cc3ccccc3)c3ccccc23)cc1 [Compound 5q, (E)-2-[(1-benzyl-1H-indol-3-yl)methylene]-N-(4-nitrophenyl)hydrazinecarbothioamide]	91.53	15.3 ± 0.3	223 to 225		
Cc1cccc(C)c1NC(=S)N/N=C/c1cn(Cc2ccccc2)c2ccccc12 [Compound 5c, (E)-2-[(1-benzyl-1H-indol-3-yl)methylene]-N-(2,6-dimethylphenyl)hydrazinecarbo thioamide]	85.66	27.4 ± 0.6			
Cc1ccc(CNC(=S)N/N=C/c2cn(Cc3ccccc3)c3ccccc23)cc1 [Compound 5k, (E)-2-[(1-benzyl-1H-indol-3-yl)methylene]-N-(4-methylbenzyl)hydrazinecarbothioamide]	90.84	12.4 ± 0.26	223 to 225	10.2 ± 0.006	competitive
Cc1cc(C)cc(NC(=S)N/N=C/c2cn(Cc3ccccc3)c3ccccc23)c1 [Compound 5m, (E)-2-[(1-benzyl-1H-indol-3-yl)methylene]-N-(3,5-dimethylphenyl)hydrazine carbo thioamide]	76.35	47.2 ± 1.27	221 to 223		
S=C(N/N=C/c1cn(Cc2ccccc2)c2ccccc12)Nc1cccc(Cl)c1Cl [Compound 5f, (E)-2-[(1-benzyl-1H-indol-3-yl)methylene]-N-(2,3-dichlorophenyl)hydrazinecarbo thioamide]	90.83	15.3 ± 0.37	213 to 215		
Cc1ccc(NC(=S)N/N=C/c2cn(Cc3ccccc3)c3ccccc23)cc1 [Compound 5n, (E)-2-[(1-benzyl-1H-indol-3-yl)methylene]-N-(p-tolyl)hydrazinecarbothioamide]	86.54	26.1 ± 0.47	221 to 223		
S=C(N/N=C/c1cn(Cc2ccccc2)c2ccccc12)Nc1cccc2ccccc12 [Compound 5r, (E)-2-[(1-benzyl-1H-indol-3-yl)methylene]-N-(naphthalen-1-yl)hydrazinecarbothioamide]	77.86	34.6 ± 0.81	199 to 201		
CNC(=S)N/N=C/c1cn(Cc2ccccc2)c2ccccc12 [Compound 5p, (E)-2-[(1-benzyl-1H-indol-3-yl)methylene]-N-methylhydrazinecarbothioamide]	46.20		220 to 221		

— PMC11378339, “Design, synthesis, and in vitro and in silico study of 1-benzyl-indole hybrid thiosemicarbazones as competitive tyrosinase inhibitors” (RSC Advances, 2024)
